Reference: patent US11840686B2, “Modulation of prekallikrein (PKK) expression” (Ionis Pharmaceuticals, Inc., priority 2013, dated 2023)
Strand notation (5' to 3'): a small letter for the sugar, then the base; units joined by * are phosphorothioate-linked, units joined directly phosphodiester-linked; [ ] holds rarer units or linkages, { } end groups; capitals alone tell only the bases. e = 2'-O-(2-methoxyethyl) (MOE); k = constrained ethyl (cEt); [5mC] = 5-methylcytosine; d = 2'-deoxy (DNA)

Experiments:
human PKK mRNA [1] = test: Antisense inhibition of human PKK mRNA in HepaRG cells, 1,000 nM, MOE/deoxy/cEt oligonucleotides (Example 3); type: cell-based
How it was run: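 Readout is percent PKK mRNA reduction against untreated controls, by real-time PCR (RTS3454) adjusted for total RNA via RIBOGREEN. Oligonucleotides, phosphorothioate gapmers of 16 nucleosides with cEt, MOE and deoxy sugars, were delivered at 1,000 nM by electroporation to 20,000 HepaRG cells/well for roughly 24 h.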

human PKK mRNA [2] = test: Dose-dependent antisense inhibition of human PKK in HepaRG cells, 0.11-3.00 uM (Example 6); type: cell-based; conditions: for IC50: 0.11-3.00 μM; for percent inhibition of PKK mRNA, 0.11 μM / percent inhibition of PKK mRNA, 0.33 μM / percent inhibition of PKK mRNA, 1.00 μM / percent inhibition of PKK mRNA, 3.00 μM: electroporation, approx. 16 hours, relative to untreated control cells
Description: Cells were plated at a density of 20,000 cells per well and transfected using electroporation with 0.11 μM, 0.33 μM, 1.00 μM, and 3.00 μM concentrations of antisense oligonucleotide. After a treatment period of approximately 16 hours, RNA was isolated from the cells and PKK mRNA levels were measured by quantitative real-time PCR. Human PKK primer probe set RTS3454 was used to measure mRNA levels. PKK mRNA levels were adjusted according to total RNA content, as measured by RIBOGREEN®. The antisense oligonucleotides were tested in a series of experiments that had similar culture conditions.
The half maximal inhibitory concentration (IC50) of each oligonucleotide is also presented.

[3] = Table 21 experiment, HepaRG cells, electroporation with 1,000 nM antisense oligonucleotide, approx. 24 hours, PKK mRNA by RT-PCR (RTS3454), relative to untreated control cells
[4] = HepaRG cells, electroporation with 1,000 nM antisense oligonucleotide, approximately 24 hours, primer probe set RTS3454, relative to untreated control cells, experiment of Table 24
[5] = HepaRG cells, electroporation with 1,000 nM antisense oligonucleotide, approximately 24 hours, primer probe set RTS3454, relative to untreated control cells, experiment of Table 23

Substance	% inhibition (human PKK mRNA [1]; [3]) [%]	IC50 (human PKK mRNA [2]) [nM]	percent inhibition of PKK mRNA, 0.11 μM (human PKK mRNA [2]) [%]	percent inhibition of PKK mRNA, 0.33 μM (human PKK mRNA [2]) [%]	percent inhibition of PKK mRNA, 1.00 μM (human PKK mRNA [2]) [%]	percent inhibition of PKK mRNA, 3.00 μM (human PKK mRNA [2]) [%]	% inhibition (human PKK mRNA [1]; HepaRG cells, 1,000 nM antisense oligonucleotide, Table 29) [%]	% inhibition (human PKK mRNA [1]; [4]) [%]	% inhibition (human PKK mRNA [1]; PKK mRNA, HepaRG cells, 1,000 nM antisense oligonucleotide, Table 31) [%]	% inhibition (human PKK mRNA [1]; HepaRG cells, electroporation with 1,000 nM antisense oligonucleotide, approx. 24 hours, PKK mRNA by RT-PCR (RTS3454), relative to untreated control cells, Table 25 experiment) [%]	% inhibition (human PKK mRNA [1]; [5]) [%]	% inhibition (human PKK mRNA [1]; Table 19, HepaRG cells, electroporation with 1,000 nM antisense oligonucleotide, approximately 24 hours, PKK mRNA by RT-PCR (RTS3454), relative to untreated control cells) [%]
547835 (e[5mC]*e[5mC]*kA*dG*dA*dA*dA*d[5mC]*dT*dG*d[5mC]*dA*d[5mC]*k[5mC]*kT*eG; antisense) [compound 547835]	81	900	44	27	53	79	–	–	–	–	–	–
548547 (antisense eG*eT*kG*d[5mC]*dG*dA*dT*dT*dA*dA*dG*d[5mC]*d[5mC]*k[5mC]*k[5mC]*eA) [compound 548547]	–	400	30	41	76	90	86	–	–	–	–	–
548055 (eG*eT*kA*dA*dT*dT*d[5mC]*dA*dA*dA*dG*dG*dA*kG*k[5mC]*e[5mC]; antisense) [compound 548055]	–	300	43	57	50	88	–	78	–	–	–	–
548667 (antisense eT*eG*kG*d[5mC]*dA*dA*dG*d[5mC]*dT*dA*d[5mC]*d[5mC]*dT*kT*k[5mC]*eT) [compound 548667]	–	700	0	37	73	86	–	–	51	–	–	–
548197 (eT*eG*k[5mC]*dT*dT*dG*dG*d[5mC]*dT*dT*d[5mC]*dA*dA*kT*kA*eT; antisense) [compound 548197]	–	800	33	37	51	75	–	–	–	68	–	–
547808 (e[5mC]*eA*kT*d[5mC]*dT*dG*dG*d[5mC]*dA*dG*dT*dA*dT*kT*kG*eG; antisense) [compound 547808]	56	1100	19	22	48	71	–	–	–	–	–	–
547946 (eG*eA*kA*d[5mC]*dT*dT*dG*dG*dT*dG*dT*dG*d[5mC]*k[5mC]*kA*e[5mC]; antisense) [compound 547946]	–	500	0	47	74	–	–	–	–	–	81	–
547948 (eA*eG*kG*dA*dA*d[5mC]*dT*dT*dG*dG*dT*dG*dT*kG*k[5mC]*e[5mC]; antisense) [compound 547948]	–	–	60	80	88	97	–	–	–	–	77	–
547922 (eT*eG*kG*dA*dG*dT*dG*dA*dG*dA*dA*d[5mC]*d[5mC]*k[5mC]*kT*eG; antisense) [compound 547922]	–	–	67	75	81	92	–	–	–	–	79	–
548070 (e[5mC]*e[5mC]*k[5mC]*dA*dA*d[5mC]*dA*dG*dT*dT*dG*dG*dT*kA*kT*eA; antisense) [compound 548070]	–	1100	26	35	48	63	–	85	–	–	–	–
548147 (e[5mC]*eG*kT*d[5mC]*d[5mC]*dT*dT*dA*dG*dG*dA*dT*dG*k[5mC]*kA*eA; antisense) [compound 548147]	–	–	59	94	80	–	–	–	–	–	–	81
